The text below walks through data of paper PMC3614957 (PLoS ONE, 2013).

Series [1] is described as follows: Membrane dipole potential assessed by di-8-ANEPPS, labeled lipid vesicles. The conditions noted are these: di-8-ANEPPS labeled LUV, control additions (data not shown). In kind it is physicochemical. How it is done:
(§1) Human blood samples were obtained from healthy volunteers, with their previous written informed consent, at the Instituto Português do Sangue (Lisbon, Portugal). This study was approved by the ethics committee of the Faculdade de Medicina da Universidade de Lisboa. Isolation of erythrocytes and PBMC and labeling of these cells with di-8-ANEPPS (Invitrogen, Carlsbad, CA, USA) were performed as described before, [29]. […] They were incubated at 1% hematocrit in buffer supplemented with 0.05% (m/v) Pluronic F-127 (Sigma) and di-8-ANEPPS 10 µM. PBMC were isolated by density gradient using Ficoll-Paque Plus (GE Healthcare, Little Chalfont, UK) and counted in a Neubauer improved hemocytometer. They were incubated at 3000 cells/µL in Pluronic-supplemented buffer with 3.3 µM di-8-ANEPPS. Cells were incubated with the fluorescent probe during 1 h, with gentle agitation, and unbound probe was washed with Pluronic-free buffer on two centrifugation cycles. […] For lipid vesicles labeling, suspensions with […] of total lipid were incubated overnight with di-8-ANEPPS 10 µM, to ensure maximum incorporation of the probe. The maximum concentration of DMSO or DMSO:ethanol in the suspensions was 2.4% (v/v) at 6 µM of peptide or cholesterol. […] The variation of R with the peptide concentration was analyzed by a single binding site model: [drawing 5] […]

The test system of a further series is human erythrocytes. The series is described as follows: Membrane dipole potential assessed by di-8-ANEPPS, erythrocytes. The conditions noted are these: up to 6 µM. In kind it is cell-based. As to the method: as §1
The next series relates to PBMC. The series can be described thus: Membrane dipole potential assessed by di-8-ANEPPS, PBMC. To be noted: up to 6 µM. It is filed as cell-based, human. How it is done:
as §1

Details of series [2]: method as in 2 sources, one per row (each row's own in cited_ref): ref 35 = [35]; PMID 14514352; doi:10.1042/BJ20031350; 35 Veiga S , Henriques S , Santos NC , Castanho MARB ( 2004 ) Putative role of membranes in the HIV fusion inhibitor enfuvirtide mode of action at the molecular level . Biochem J 377 : 107 – 110 . 145 ||| ref 8, 29 = [8]; PMID 18410103; doi:10.1021/ja711247n; 8 Franquelim HG , Loura LM , Santos NC , Castanho MARB ( 2008 ) Sifuvirtide screens rigid membrane surfaces. establishment of a correlation between efficacy and membrane domain selectivity among HIV f || [29]; PMID 21075080; doi:10.1016/j.bbrc.2010.11.013; 29 Matos PM , Freitas T , Castanho MARB , Santos NC ( 2010 ) The role of blood cell membrane lipids on the mode of action of HIV-1 fusion inhibitor sifuvirtide . Biochem Biophys Res Commun 403 : 270 –. To be noted: cited from earlier work.

With `CC(C)CCC[C@@H](C)[C@H]1CC[C@H]2[C@@H]3CC=C4C[C@@H](O)CC[C@]4(C)[C@H]3CC[C@]12C` [cholesterol], in series [1], the “changes on the dipole potential” value was “no changes”. For the same compound, the “effect on membrane dipole potential” value with human erythrocytes and in the series with PBMC was “not sufficient to induce a detectable membrane potential change” throughout.

Turning to sifuvirtide, the “binding to POPC vesicles” value in series [2] was “residual binding”.
